Laboratory results published in patent US6680178B2, “Profiling of protease specificity using combinatorial fluorogenic substrate libraries” (The Regents of the University of California, priority 2000, dated 2004).
One block for each compound: values may come before it. Non-standard residues stand in square brackets, D forms with d. Residues, ends and D or L forms follow the SMILES beside them. *: point of attachment. ACC = NC(=O)Cc1cc(=O)oc2cc(N*)ccc12; AMC = Cc1cc(=O)oc2cc(N*)ccc12; Nle = CCCC[C@H](N)C(=O)O; CH2Cl = ClC*

What was measured:
[1] = Fluorescence properties of free and peptidyl-derivatized ACC and AMC; format: physicochemical; settings: for λmax, em / λmax, ex: 25° C.; for RFU/nM1 / RFU/nM2: λex = 380 nm; for RFU/nM1: λem = 450 nm; for RFU/nM2: λem = 460 nm
Description: The fluorescence of free ACC and peptidyl-derivatized ACC was detected on a Spex fluorometer thermostated to 25° C. Excitation wavelengths of 300-410 nm, 5 nm intervals, were used with emission wavelengths of 410-500 nm, 5 nm intervals, to determine optimal excitation and emission parameters.

[2] = molecular target: T1, thrombin (Homo sapiens, UniProt P00734); experiment: Single substrate kinetic assay with thrombin (ACC vs AMC leaving group); format: biochemical; settings: thrombin 5-20 nM
T1 construct: Human thrombin, plasmin, and factor Xa were used as received; purchased Haematologic Technologies Inc. (Essex Jct., Vt.)
Description: (§1) Thrombin concentration ranged from 5-20 nM. The final concentration of substrate ranged from 0.005-2 mM, the concentration of DMSO in the assay was less than 5%. Hydrolysis of AMC and ACC substrates was monitored fluorometrically with an excitation wavelength of 380 nm and emission wavelength of 460 nm on a Fluoromax-2 spectrofluorometer. Cruzain (10 nM) was incubated with 600 μM of the Ac-Leu-Thr-Phe-Lys-ACC substrate. Aliquots were removed at various time points and applied to a C-18 reverse-phase HPLC column with a 10-40% gradient of 95:4.9:0.1 Acetonitrile:H2O:TFA. MALDI (PE Biosystems Voyager) mass spectrometry data was collected on the HPLC fractions.

[3] = molecular target: T2, βI Tryptase (Homo sapiens, UniProt Q15661); experiment: Single substrate kinetic analysis, βI tryptase; format: biochemical; settings: for Km: βI Tryptase, 30° C., pH 7.5
T2 construct: Secreted mature βI and βII tryptases were purified to homogeneity; made in house; host or cells: Pichia pastoris GS115
T2 sequence (Q15661 31-275): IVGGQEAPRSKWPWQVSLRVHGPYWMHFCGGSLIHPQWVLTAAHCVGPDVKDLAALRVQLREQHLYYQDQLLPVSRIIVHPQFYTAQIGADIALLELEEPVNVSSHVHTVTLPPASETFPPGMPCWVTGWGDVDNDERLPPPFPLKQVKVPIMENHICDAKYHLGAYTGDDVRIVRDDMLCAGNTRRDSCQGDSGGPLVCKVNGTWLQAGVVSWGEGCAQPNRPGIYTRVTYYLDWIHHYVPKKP
Description: (§2) Tryptase activity was monitored at 30° C. in assay buffer containing 100 mM HEPES pH 7.5 and 10% glycerol. Substrate stock solutions were prepared in DMSO. The final concentration of substrate ranged from 0.005-2 mM. The concentration of DMSO in the assay was less than 5%. The tryptase concentration was 5 nM. Hydrolysis of ACC substrates was monitored fluorometrically with an excitation wavelength of 380 nm and emission wavelength of 450 nm on a Fluoromax-2 spectrofluorimeter (JY Horiba).

[4] = molecular target: T3, βII Tryptase (Homo sapiens, UniProt Q15661, N132K); experiment: Single substrate kinetic analysis, βII tryptase; format: biochemical; settings: for Km: βII Tryptase, 30° C., pH 7.5
T3 construct: Secreted mature βI and βII tryptases were purified to homogeneity; made in house; host or cells: Pichia pastoris GS115
T3 sequence (Q15661 31-275 N132K): as the sequence (Q15661 31-275) above, with N102K counted along it
Description: as §2

[5] = molecular target: T4, cruzain (Trypanosoma cruzi, UniProt P25779); experiment: Incubation of single substrate with cruzain and analysis of cleavage products (HPLC, MALDI); format: biochemical; settings: cruzain 10 nM, 600 μM substrate; data not shown
T4 construct: made in house
T4 sequence (P25779 123-337): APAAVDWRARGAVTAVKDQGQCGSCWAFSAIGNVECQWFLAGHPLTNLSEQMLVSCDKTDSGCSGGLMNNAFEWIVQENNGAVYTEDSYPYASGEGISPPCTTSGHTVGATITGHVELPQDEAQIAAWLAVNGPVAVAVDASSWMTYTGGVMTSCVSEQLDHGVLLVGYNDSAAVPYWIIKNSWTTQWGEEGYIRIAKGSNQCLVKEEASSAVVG
Description: as §1

[6] = molecular target: T2, βI Tryptase; experiment: Irreversible inhibitor kinetic analysis (progress curves), βI tryptase; format: biochemical; settings: tryptase 1 nM, 30° C., 100 μM Ac-PRNK-ACC substrate
Description: (§3) Progress curves were obtained for tryptase (1 nM) inactivation by multiple concentrations of Ac-PRNK-cmk (50 nM to 10 μM). Activity was monitored at 30° C. in activity buffer with 100 μM Ac-PRNK-ACC substrate. The rate constant for loss of enzyme activity, kobs, was determined from a non-linear regression of the progress curve data. kobs varied linearly with inhibitor concentration. Therefore, kass, the rate constant for the inactivation of enzyme with inhibitor, was determined by linear regression analysis (Bieth, J. G. Methods in Enzymology 248: 59-84 (1995)). Several P1-basic-preferring proteases were monitored for inhibition by Ac-PRNK-cmk as follows: tryptase bI (50 nM), tryptase bII (50 nM), factor Xa (50 nM), tPA (50 nM), uPA (50 nM), thrombin (1 nM), and plasmin (5 nM) were incubated for 5 minutes with 0 μM, 10 μM, 100 μM Ac-PRNK-cmk. After incubation, residual activity was monitored as follows: Ac-PRNK-ACC was added to a final concentration of 5 μM to the samples containing tryptase βI and βII; Ac-GTAR-ACC (5 μM) was added to the factor Xa and tPA samples; Ac-QFAR-ACC (5 μM) was added to the uPA samples; Ac-nTPR-ACC (5 μM) was added to the thrombin samples; and Ac-KQWK-ACC (5 μM) was added to plasmin samples.
(§4) Progress curves were obtained for tryptase (1 nM) inactivation by multiple concentrations of Ac-PRNK-cmk (50 nM to 10 μM). […]

[7] = molecular target: T3, βII Tryptase; experiment: Irreversible inhibitor kinetic analysis (progress curves), βII tryptase; format: biochemical; settings: tryptase 1 nM, 30° C., 100 μM Ac-PRNK-ACC substrate
Description: as §3, §4

[8] = molecular target: T5, Plasmin (Homo sapiens, UniProt P00747); experiment: Protease inhibition by Ac-PRNK-cmk, residual activity; format: biochemical; settings: 100 μM Ac-PRNK-cmk, 5 minutes incubation, enzyme 5 nM
T5 construct: Human thrombin, plasmin, and factor Xa were used as received; purchased Haematologic Technologies Inc. (Essex Jct., Vt.)
T5 sequence (P00747 581-810 limits assumed): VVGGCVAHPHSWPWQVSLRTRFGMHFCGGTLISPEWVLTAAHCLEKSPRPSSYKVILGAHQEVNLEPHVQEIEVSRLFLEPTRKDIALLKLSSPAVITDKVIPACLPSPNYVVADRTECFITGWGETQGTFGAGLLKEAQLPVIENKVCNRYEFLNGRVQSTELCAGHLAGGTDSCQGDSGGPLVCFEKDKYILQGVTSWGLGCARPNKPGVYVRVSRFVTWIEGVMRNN
T5 sequence (P00747 97-580 partner limits assumed): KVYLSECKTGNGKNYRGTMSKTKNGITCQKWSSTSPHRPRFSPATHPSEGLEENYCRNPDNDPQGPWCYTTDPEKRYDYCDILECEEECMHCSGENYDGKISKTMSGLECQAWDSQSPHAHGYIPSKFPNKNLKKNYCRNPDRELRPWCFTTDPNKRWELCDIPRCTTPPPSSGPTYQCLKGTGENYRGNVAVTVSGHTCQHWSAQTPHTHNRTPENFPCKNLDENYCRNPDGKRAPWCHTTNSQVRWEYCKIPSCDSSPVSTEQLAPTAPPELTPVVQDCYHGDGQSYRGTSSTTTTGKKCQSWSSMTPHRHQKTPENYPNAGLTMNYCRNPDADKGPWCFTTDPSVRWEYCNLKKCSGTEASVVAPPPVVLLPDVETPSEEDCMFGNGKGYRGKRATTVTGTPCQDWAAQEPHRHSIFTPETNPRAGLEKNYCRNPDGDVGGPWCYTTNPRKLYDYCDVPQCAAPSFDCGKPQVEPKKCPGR
Description: as §3
as §3, with “(Bieth” for “(Bieth, J. G. Methods in Enzymology 248: 59-84”, “bIl” for “bII”

[9] = molecular target: T6, Tryptase βI (Homo sapiens, UniProt Q15661); experiment: as above; format: biochemical; settings: 10 μM Ac-PRNK-cmk, 5 minutes incubation, enzyme 50 nM
T6 construct: Secreted mature βI and βII tryptases were purified to homogeneity; made in house; host or cells: Pichia pastoris GS115
T6 sequence (Q15661 31-275): as the sequence (Q15661 31-275) above
Description: as §3
as §3, with “(Bieth” for “(Bieth, J. G. Methods in Enzymology 248: 59-84”, “bIl” for “bII”

[10] = molecular target: T7, Tryptase βII (Homo sapiens, UniProt Q15661, N132K); experiment: as above; format: biochemical; settings: 10 μM Ac-PRNK-cmk, 5 minutes incubation, enzyme 50 nM
T7 construct: Secreted mature βI and βII tryptases were purified to homogeneity; made in house; host or cells: Pichia pastoris GS115
T7 sequence (Q15661 31-275 N132K): as the sequence (Q15661 31-275) above, with N102K counted along it
Description: as §3
as §3, with “(Bieth” for “(Bieth, J. G. Methods in Enzymology 248: 59-84”, “bIl” for “bII”

[11] = molecular target: T8, tPA (Homo sapiens, UniProt P00750); experiment: as above; format: biochemical; settings: 100 μM Ac-PRNK-cmk, 5 minutes incubation, enzyme 50 nM
T8 construct: purchased American Diagnostica (Greenwich, Conn.)
T8 sequence (P00750 36-562): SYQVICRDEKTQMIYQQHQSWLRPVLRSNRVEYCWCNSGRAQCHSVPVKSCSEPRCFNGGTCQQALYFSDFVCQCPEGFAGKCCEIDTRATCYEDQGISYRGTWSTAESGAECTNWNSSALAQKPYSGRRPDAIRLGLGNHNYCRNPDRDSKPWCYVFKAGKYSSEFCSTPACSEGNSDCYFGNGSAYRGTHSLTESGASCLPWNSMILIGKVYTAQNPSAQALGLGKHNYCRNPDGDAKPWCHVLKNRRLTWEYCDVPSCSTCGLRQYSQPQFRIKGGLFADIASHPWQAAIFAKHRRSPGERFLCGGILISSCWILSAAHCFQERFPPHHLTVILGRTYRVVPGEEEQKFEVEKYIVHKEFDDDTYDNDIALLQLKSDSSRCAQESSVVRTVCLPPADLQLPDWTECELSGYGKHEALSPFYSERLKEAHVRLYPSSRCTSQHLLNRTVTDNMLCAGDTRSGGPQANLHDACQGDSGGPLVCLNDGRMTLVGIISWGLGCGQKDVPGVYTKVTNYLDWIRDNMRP
Description: as §3
as §3, with “(Bieth” for “(Bieth, J. G. Methods in Enzymology 248: 59-84”, “bIl” for “bII”

[12] = molecular target: T1, thrombin; experiment: as above; format: biochemical; settings: 100 μM Ac-PRNK-cmk, 5 minutes incubation, enzyme 1 nM
Description: as §3
as §3, with “(Bieth” for “(Bieth, J. G. Methods in Enzymology 248: 59-84”, “bIl” for “bII”

[13] = molecular target: T9, uPA (Homo sapiens, UniProt P00749); experiment: as above; format: biochemical; settings: 100 μM Ac-PRNK-cmk, 5 minutes incubation, enzyme 50 nM
T9 construct: purchased American Diagnostica (Greenwich, Conn.) or Calbiochem (San Diego, Calif.)
Description: as §3
as §3, with “(Bieth” for “(Bieth, J. G. Methods in Enzymology 248: 59-84”, “bIl” for “bII”

[14] = system: Factor Xa; experiment: as above; format: biochemical, human; settings: 100 μM Ac-PRNK-cmk, 5 minutes incubation, enzyme 50 nM
Description: as §3, §4

[15] = range stated over tryptase βI and βII

Compound: 7-Nle-Thr-Pro-Lys-ACC
λmax, em [1]: 400 nm
λmax, ex [1]: 325 nm
RFU/nM1 [1]: 6.4 RFU/nM
RFU/nM2 [1]: 4.6 RFU/nM

Compound: NC(=O)Cc1cc(=O)oc2cc(N)ccc12 [7-Amino-4-Carbamoylmethyl-coumarin (ACC), 7-amino-4-carbamoylmethyl-coumarin]
λmax, em [1]: 450 nm
λmax, ex [1]: 350 nm
fluorescence yield relative to the AMC coumarin ([1]; excitation 380 nm, emission 460 nm): approximately 2.8 fold
RFU/nM1 [1]: 5750 RFU/nM
RFU/nM2 [1]: 4390 RFU/nM

Compound: CC(=O)N[C@@H](CC(C)C)C(=O)NCC(=O)N1CCC[C@H]1C(=O)N[C@@H](CCCCN)C(=O)Nc1ccc2c(CC(N)=O)cc(=O)oc2c1 [Ac-Leu-Gly-Pro-Lys--ACC] (Ac-LGPK-{ACC})
Km [2]: 195 ± 30 µM

Compound: CC(=O)N[C@@H](CC(C)C)C(=O)NCC(=O)N1CCC[C@H]1C(=O)N[C@@H](CCCCN)C(=O)Nc1ccc2c(C)cc(=O)oc2c1 [Ac-Leu-Gly-Pro-Lys-AMC] (Ac-LGPK-{AMC})
Km [2]: 160 ± 25 µM
kcat [2]: 2.3 ± 0.2 s⁻¹

Compound: CCCC[C@H](NC(C)=O)C(=O)N[C@H](C(=O)N1CCC[C@H]1C(=O)N[C@@H](CCCCN)C(=O)Nc1ccc2c(C)cc(=O)oc2c1)[C@@H](C)O [Ac-Nle-Thr-Pro-Lys-AMC] (Ac-[Nle]TPK-{AMC})
Km [2]: 115 ± 10 µM
kcat [2]: 31.0 ± 0.9 s⁻¹

Compound: Ac-Leu-Thr-Phe-Lys-ACC (Ac-LTFK-{ACC}; SMILES CC(=O)N[C@@H](CC(C)C)C(=O)N[C@H](C(=O)N[C@@H](Cc1ccccc1)C(=O)N[C@@H](CCCCN)C(=O)Nc1ccc2c(CC(N)=O)cc(=O)oc2c1)[C@@H](C)O)
cleavage products observed [5]: cleavage between Thr-Phe

Second part, led by results:

λmax, em [1]: 390 nm
λmax, ex [1]: 330 nm
RFU/nM1 [1]: 3.3 RFU/nM
RFU/nM2 [1]: 2.2 RFU/nM
Compound: 7-Nle-Thr-Pro-Lys-AMC [reference compound]

Km [2]: 125 ± 13 µM
Compound: CCCC[C@H](NC(C)=O)C(=O)N[C@H](C(=O)N1CCC[C@H]1C(=O)N[C@@H](CCCCN)C(=O)Nc1ccc2c(CC(N)=O)cc(=O)oc2c1)[C@@H](C)O [Ac-Nle Thr-Pro-Lys--ACC] (Ac-[Nle]TPK-{ACC})

Km [3]: 111 ± 9.8 µM
Km [4]: 133 ± 15.6 µM
Compound: CC(=O)N1CCC[C@H]1C(=O)N[C@@H](C)C(=O)N[C@@H](CC(N)=O)C(=O)N[C@@H](CCCCN)C(=O)Nc1ccc2c(CC(N)=O)cc(=O)oc2c1 [Ac-PANK-ACC] (Ac-PANK-{ACC})

Km [3]: 8.9 ± 0.9 µM
Km [4]: 14.5 ± 1.9 µM
Compound: CC(=O)N1CCC[C@H]1C(=O)N[C@@H](CCCNC(=N)N)C(=O)N[C@@H](CC(N)=O)C(=O)N[C@@H](CCCCN)C(=O)Nc1ccc2c(CC(N)=O)cc(=O)oc2c1 [Ac-PRNK-ACC] (Ac-PRNK-{ACC})

activity relative to Ac-PRNK-ACC substrate [3, 15]: 70-90%
Km [3]: 16.5 ± 2.7 µM
activity relative to Ac-PRNK-ACC substrate [4, 15]: 70-90%
Km [4]: 18.6 ± 2.6 µM
Compound: CC(=O)N1CCC[C@H]1C(=O)N[C@@H](CCCNC(=N)N)C(=O)N[C@@H](CC(N)=O)C(=O)N[C@@H](CCCNC(=N)N)C(=O)Nc1ccc2c(CC(N)=O)cc(=O)oc2c1 [Ac-PRNR-ACC] (Ac-PRNR-{ACC})

Km [3]: 14.7 ± 1.4 µM
Km [4]: 23.4 ± 2.3 µM
Compound: CC(=O)N1CCC[C@H]1C(=O)N[C@@H](CCCNC(=N)N)C(=O)N[C@H](C(=O)N[C@@H](CCCCN)C(=O)Nc1ccc2c(CC(N)=O)cc(=O)oc2c1)[C@@H](C)O [Ac-PRTK-ACC] (Ac-PRTK-{ACC})

association rate constant, kass [6]: 5000 ± 200 M⁻¹ s⁻¹
association rate constant, kass [7]: 5000 ± 200 M⁻¹ s⁻¹
Percent Inhibition [8]: 63
Percent Inhibition [9]: 95
Percent Inhibition [10]: 95
Percent Inhibition [11]: 0
Percent Inhibition [12]: 0
Percent Inhibition [13]: 34
Compound: Ac-PRNK-CH2Cl
Percent Inhibition [14]: 0
